Reference: publication PMC4707489, “A novel cell-penetrating peptide suppresses breast tumorigenesis by inhibiting β-catenin/LEF-1 signaling” (Scientific Reports, 2016)

Tests used:
MDA-MB-231 cells [1] = assay: Cell growth (CCK-8); assay type: cell-based, human
Method: (§3) Cell growth was analyzed using 2-(2-methoxy-4-nitrophenyl)-3-(4-nitroph enyl)-5-(2,4-disulfophenyl)-2H-tetrazolium, monosodium salt, and the Cell Counting Kit-8 (CCK-8, Sigma). […] After culturing for another 48 hr, cell growth was analyzed by CCK-8 and the optical density was detected at 450 nm. The growth ratio was normalized to the cells without treatment.

ZR-75-30 cells = assay: Cell growth (CCK-8), HER2 positive cell line; assay type: cell-based, human; details: ZR-75-30, 100 μmol/l, CCK-8 at 48 hr post-transfection (Fig. 6f)
Method: as §3

β-catenin = assay: Peptide-protein interaction by immunoprecipitation and PLA; assay type: binding, human
Method: Immunoprecipitation and western blotting were performed as described previously. MCF-7 and MDA-MB-231 cells were harvested in 4 °C phosphate-buffered saline and cell pellets were lysed with RIPA lysis buffer (Millipore, Bedford, MA, USA) for 30 min on ice. Cell lysis supernatant liquid was obtained by centrifugation at 10,000 × g for 10 min, incubated with protein-G beads (Roche, Indianapolis, IN) and anti-β-catenin, and subjected to western blotting. For the western blotting assay, cellular extract proteins were separated by SDS-polyacrylamide gel (SDS-PAGE) and transferred to nitrocellulose membrane (Millipore) using a dry transfer apparatus (Bio-Rad). […]
MCF-7 and MDA-MB-231 cells were cultured in 35-mm plates with cover slides on the plate bottom and treated with NLS-BLBD-6, TAT-BLBD-6 and TAT-NLS-BLBD-6 peptide for 24 hr. […] For the immunofluorescence assay, the slides were incubated with primary antibodies, anti-β-catenin (Epitomics) and anti-TAT (Santa Cruz), for 6 hr, and Alexa-488 fluorescence secondary antibodies for 1 hr. […] For the TUNEL assay, apoptosis was analyzed by the Apo-BrdU-red DNA Fragmentation Assay kit, according to the manufacturer’s protocol (BioVision, Mountain View, CA, USA). For the PLA, the protein–protein interaction assay was analyzed by Duolink® using PLA® Technology, according to the manufacturer’s protocol (Olink Bioscience, Uppsala, Sweden). […]

MCF-7 cells [2] = assay: TUNEL apoptosis assay; assay type: cell-based, human; details: MCF-7, 100 μmol/l, vs control or TAT-NLS-BLBD-6m (Fig. 3b)
Method: (§1) MCF-7 and MDA-MB-231 cells were cultured in 35-mm plates with cover slides on the plate bottom and treated with NLS-BLBD-6, TAT-BLBD-6 and TAT-NLS-BLBD-6 peptide for 24 hr. Subsequently, cells were fixed with 4% paraformaldehyde and permeabilized with 0.2% Triton X-100 for 20 min at room temperature. For the immunofluorescence assay, the slides were incubated with primary antibodies, anti-β-catenin (Epitomics) and anti-TAT (Santa Cruz), for 6 hr, and Alexa-488 fluorescence secondary antibodies for 1 hr. DAPI (Sigma, St Louis, MO) was used to stain the nucleus for 1 min at room temperature. For the TUNEL assay, apoptosis was analyzed by the Apo-BrdU-red DNA Fragmentation Assay kit, according to the manufacturer’s protocol (BioVision, Mountain View, CA, USA). For the PLA, the protein–protein interaction assay was analyzed by Duolink® using PLA® Technology, according to the manufacturer’s protocol (Olink Bioscience, Uppsala, Sweden). Briefly, the slides were incubated with primary antibodies, anti-β-catenin (Epitomics) and anti-TAT (Santa Cruz), and secondary antibodies, Duolink PLA Rabbit MINUS and PLA Mouse PLUS proximity probes. Finally, the proximity ligation was performed by the Duolink detection reagent kit (Olink Bioscience). The immunofluorescence image and TUNEL staining was photographed by a microscope (IX-71, Olympus, Tokyo, Japan).

MDA-MB-231 cells [3] = assay: TUNEL apoptosis assay; assay type: cell-based, human; details: MDA-MB-231, 100 μmol/l, vs control or TAT-NLS-BLBD-6m (Fig. 3b)
Method: as §1

MCF-7 cells [4] = assay: Transwell invasion assay; assay type: cell-based, human; details: MCF-7, 100 μmol/l, 48 hr post-transfection, vs control or TAT-NLS-BLBD-6m (Fig. 3c)
Method: (§2) Transwell chambers of […] pore size were used in the in vitro invasion assay. MCF-7 and MDA-MB-231 cells were seeded onto the upper chamber and incubated with TAT-NLS-BLBD-6 and TAT-NLS-BLBD-6m peptide and 10% fetal bovine serum medium were added to the bottom chamber well. After 24 hr, cells invading the lower chamber were fixed with 4% paraformaldehyde solution and stained with 0.1% crystal violet for 30 min at 37 °C. Three random field images were obtained by microscopy, and the number of invading cells were counted. For the migration assay, MCF-7 and MDA-MB-231 cells were seeded onto 6-well plates. After 24 hr, an artificial wound was created using a 10-μl pipette tip, and the wound was incubated with TAT-NLS-BLBD-6 or TAT-NLS-BLBD-6m for 24 hr at 37 °C. The images of wound healing were captured by microscopy, and the wound healing distances were calculated by Image J (U.S. National Institutes of Health, Bethesda, MD, USA). For the colony formation assay, MCF-7 and MDA-MB-231 cells were seeded into 10-cm dishes with the medium containing TAT-NLS-BLBD-6 or TAT-NLS-BLBD-6m. After 2 weeks, cells were fixed with 4% paraformaldehyde solution and stained with 0.1% crystal violet for 30 min at 37 °C.

MDA-MB-231 cells [5] = assay: Transwell invasion assay; assay type: cell-based, human; details: MDA-MB-231, 100 μmol/l, 48 hr post-transfection, vs control or TAT-NLS-BLBD-6m (Fig. 3c)
Method: as §2

MCF-7 cells [6] = assay: Wound-healing migration assay; assay type: cell-based, human; details: MCF-7, 100 μmol/l, 48 hr post-transfection, vs control or TAT-NLS-BLBD-6m (Fig. 3d)
Method: as §2

MDA-MB-231 cells [7] = assay: Wound-healing migration assay; assay type: cell-based, human; details: MDA-MB-231, 100 μmol/l, 48 hr post-transfection, vs control or TAT-NLS-BLBD-6m (Fig. 3d)
Method: as §2

breast cancer cells = assay: Cell growth in combination with E2, BBP or TAM (CCK-8); assay type: cell-based, human; details: 48 hr (Fig. 1e)
Method: as §3

## H-TAT-NLS-ATDEMIPF-NH2 [TAT-NLS-BLBD-6]
MDA-MB-231 cells [1]; 75 μmol/l peptide, MDA-MB-231, CCK-8, means of three experiments (Fig. 1b)
  cell growth: inhibited the growth
MDA-MB-231 cells [1]; MDA-MB-231, indicated concentrations, 24, 48 and 72 hr (Fig. 1c,d)
  time and dose dependence of cell growth: inhibited breast cancer cell growth in a time- and dose-dependent manner
ZR-75-30 cells
  cell growth: inhibits the growth
β-catenin; MCF-7 cell nuclei, immunoprecipitation and PLA, 2 hr post-transfection (Fig. 2b,c)
  binding to β-catenin: bound to the β-catenin elements
β-catenin; MDA-MB-231 cell nuclei, PLA, 100 μmol/l, 2 hr post-transfection (Fig. 2c)
  binding to β-catenin: bound to the β-catenin elements
MCF-7 cells [2]
  apoptosis (TUNEL, BrdU binding and DNA fragmentation): increased the effect of binding with BrdU and DNA fragmentation
MDA-MB-231 cells [3]
  apoptosis (TUNEL, BrdU binding and DNA fragmentation): increased the effect of binding with BrdU and DNA fragmentation
MCF-7 cells [4]
  invasion: inhibited the mobility
MDA-MB-231 cells [5]
  invasion: inhibited the mobility
MCF-7 cells [6]
  migration (wound healing): inhibited the mobility
MDA-MB-231 cells [7]
  migration (wound healing): inhibited the mobility
Breast cancer cells; peptide 100 μmol/l with E2 (1 μM) or BBP (1 μM)
  cell growth, combination with E2 or BBP: blocked the activity of E2 and BBP
Breast cancer cells; peptide 100 μmol/l with TAM (1 μM)
  cell growth, combination with TAM: increased the response of TAM
HEK293 cells
  cell growth of embryonic kidney cells: did not inhibit the growth
